Laboratory results taken from the NIST ThermoML archive (doi:10.1016/j.jct.2012.03.025).
Numbers after ± are expanded uncertainties.

Assay: mn = molality of the nth substance listed, in mol/kg
Details: 101 kPa, Liquid; for speed of sound: Sing-around technique in a fixed-path interferometer; for mass density: Vibrating tube method

CC(=O)[O-].CCCCn1cc[n+](C)c1 [1-butyl-3-methylimidazolium acetate] + O
Details	mass density, 288.15 K [kg/m3]	mass density, 293.15 K [kg/m3]	mass density, 298.15 K [kg/m3]	mass density, 303.15 K [kg/m3]	mass density, 308.15 K [kg/m3]	speed of sound, 288.15 K [m/s]	speed of sound, 293.15 K [m/s]	speed of sound, 298.15 K [m/s]	speed of sound, 303.15 K [m/s]	speed of sound, 308.15 K [m/s]
m1 = 0.0534	999.93 ± 0.11	999 ± 0.11	997.824 ± 0.11	996.406 ± 0.11	994.772 ± 0.11	1476.3 ± 0.78	1492 ± 0.78	1505.6 ± 0.79	1517.5 ± 0.79	1527.3 ± 0.79
m1 = 0.104	1000.71 ± 0.11	999.755 ± 0.11	998.548 ± 0.11	997.105 ± 0.11	995.451 ± 0.11	1485.4 ± 0.8	1500.6 ± 0.8	1513.6 ± 0.8	1525.2 ± 0.81	1534.3 ± 0.81
m1 = 0.1535	1001.45 ± 0.11	1000.47 ± 0.11	999.237 ± 0.11	997.775 ± 0.11	996.101 ± 0.11	1494.2 ± 0.82	1508.8 ± 0.82	1521.3 ± 0.82	1532.3 ± 0.83	1541 ± 0.83
m1 = 0.209	1002.31 ± 0.12	1001.29 ± 0.12	1000.03 ± 0.12	998.535 ± 0.12	996.836 ± 0.12	1504 ± 0.84	1517.9 ± 0.85	1529.8 ± 0.85	1540 ± 0.85	1548.3 ± 0.85
m1 = 0.2498	1002.95 ± 0.12	1001.91 ± 0.12	1000.62 ± 0.12	999.11 ± 0.12	997.391 ± 0.12	1511 ± 0.86	1524.4 ± 0.87	1535.9 ± 0.87	1545.7 ± 0.87	1553.8 ± 0.87
m1 = 0.2997	1003.66 ± 0.12	1002.59 ± 0.12	1001.27 ± 0.12	999.737 ± 0.12	997.998 ± 0.12	1519.5 ± 0.89	1532 ± 0.89	1543 ± 0.89	1552.5 ± 0.89	1560.3 ± 0.9
m1 = 0.35	1004.51 ± 0.13	1003.4 ± 0.13	1002.05 ± 0.13	1000.49 ± 0.13	998.725 ± 0.13	1528.1 ± 0.91	1540 ± 0.91	1550 ± 0.92	1559 ± 0.92	1566.8 ± 0.92
m1 = 0.4035	1005.33 ± 0.13	1004.19 ± 0.13	1002.81 ± 0.13	1001.22 ± 0.13	999.427 ± 0.13	1536.9 ± 0.94	1548 ± 0.94	1557.6 ± 0.94	1566 ± 0.95	1573.3 ± 0.95
m1 = 0.457	1006.2 ± 0.14	1005.02 ± 0.14	1003.61 ± 0.14	1001.98 ± 0.14	1000.17 ± 0.14	1545.8 ± 0.97	1556 ± 0.97	1564.8 ± 0.97	1572.9 ± 0.97	1579.9 ± 0.98
m1 = 0.5036	1006.93 ± 0.15	1005.72 ± 0.14	1004.28 ± 0.14	1002.63 ± 0.14	1000.79 ± 0.14	1553.4 ± 0.99	1562.8 ± 1	1571 ± 1	1578.5 ± 1	1585.6 ± 1

CCCCn1cc[n+](C)c1.O=S(=O)([O-])C(F)(F)F [1-butyl-3-methylimidazolium trifluoromethanesulfonate] + O
Details	mass density, 288.15 K [kg/m3]	mass density, 293.15 K [kg/m3]	mass density, 298.15 K [kg/m3]	mass density, 303.15 K [kg/m3]	mass density, 308.15 K [kg/m3]	speed of sound, 288.15 K [m/s]	speed of sound, 293.15 K [m/s]	speed of sound, 298.15 K [m/s]	speed of sound, 303.15 K [m/s]	speed of sound, 308.15 K [m/s]
m1 = 0.051	1002.68 ± 0.083	1001.73 ± 0.082	1000.53 ± 0.081	999.089 ± 0.081	997.44 ± 0.081	1472.8 ± 0.78	1488 ± 0.79	1501.7 ± 0.79	1513.5 ± 0.79	1523.6 ± 0.8
m1 = 0.1023	1006.18 ± 0.088	1005.17 ± 0.087	1003.9 ± 0.086	1002.43 ± 0.085	1000.76 ± 0.085	1478.5 ± 0.81	1493.2 ± 0.81	1506.2 ± 0.82	1517.4 ± 0.82	1527 ± 0.82
m1 = 0.1499	1009.37 ± 0.094	1008.3 ± 0.093	1007 ± 0.092	1005.49 ± 0.091	1003.78 ± 0.091	1483.8 ± 0.84	1497.9 ± 0.84	1510.2 ± 0.85	1520.8 ± 0.85	1529.8 ± 0.85
m1 = 0.1996	1012.64 ± 0.1	1011.5 ± 0.1	1010.17 ± 0.1	1008.6 ± 0.1	1006.87 ± 0.099	1489.1 ± 0.87	1502.4 ± 0.88	1514.2 ± 0.88	1524.5 ± 0.88	1533 ± 0.88
m1 = 0.2496	1015.85 ± 0.11	1014.68 ± 0.11	1013.28 ± 0.11	1011.7 ± 0.11	1009.91 ± 0.11	1494.2 ± 0.91	1507 ± 0.91	1518.1 ± 0.91	1527.6 ± 0.91	1535.6 ± 0.92
m1 = 0.3019	1019.2 ± 0.13	1017.92 ± 0.12	1016.52 ± 0.12	1014.86 ± 0.12	1013.02 ± 0.12	1499.2 ± 0.94	1511.3 ± 0.95	1521.8 ± 0.95	1530.8 ± 0.95	1538.2 ± 0.95
m1 = 0.3489	1022.13 ± 0.14	1020.78 ± 0.14	1019.36 ± 0.14	1017.64 ± 0.14	1015.77 ± 0.13	1503.5 ± 0.98	1515 ± 0.98	1525 ± 0.98	1533.5 ± 0.99	1540.5 ± 0.99
m1 = 0.4034	1025.46 ± 0.15	1024.1 ± 0.15	1022.57 ± 0.15	1020.8 ± 0.15	1018.88 ± 0.15	1508.2 ± 1	1519 ± 1	1528.4 ± 1	1536.3 ± 1	1542.8 ± 1
m1 = 0.4532	1028.45 ± 0.17	1027.06 ± 0.17	1025.5 ± 0.17	1023.65 ± 0.17	1021.69 ± 0.17	1512.3 ± 1.1	1522.7 ± 1.1	1531.5 ± 1.1	1538.9 ± 1.1	1544.9 ± 1.1
m1 = 0.5045	1031.5 ± 0.19	1030.04 ± 0.19	1028.46 ± 0.19	1026.57 ± 0.19	1024.5 ± 0.18	1517 ± 1.1	1526.9 ± 1.1	1534.1 ± 1.1	1541 ± 1.1	1546.6 ± 1.1

CCCCn1cc[n+](C)c1.[I-] [1-butyl-3-methylimidazolium iodide] + O
Details	mass density, 288.15 K [kg/m3]	mass density, 293.15 K [kg/m3]	mass density, 298.15 K [kg/m3]	mass density, 303.15 K [kg/m3]	mass density, 308.15 K [kg/m3]	speed of sound, 288.15 K [m/s]	speed of sound, 293.15 K [m/s]	speed of sound, 298.15 K [m/s]	speed of sound, 303.15 K [m/s]	speed of sound, 308.15 K [m/s]
m1 = 0.0514	1003.51 ± 0.094	1002.58 ± 0.094	1001.37 ± 0.092	999.906 ± 0.092	998.257 ± 0.092	1471.2 ± 0.77	1486.3 ± 0.77	1500 ± 0.77	1511.9 ± 0.78	1522.2 ± 0.78
m1 = 0.1017	1007.71 ± 0.095	1006.74 ± 0.094	1005.46 ± 0.093	1003.96 ± 0.092	1002.28 ± 0.091	1475.6 ± 0.77	1489.8 ± 0.78	1503 ± 0.78	1514.5 ± 0.78	1524.4 ± 0.79
m1 = 0.1497	1011.65 ± 0.095	1010.64 ± 0.094	1009.32 ± 0.093	1007.76 ± 0.093	1006.08 ± 0.092	1479.5 ± 0.78	1493.2 ± 0.78	1505.8 ± 0.79	1516.8 ± 0.79	1526.2 ± 0.79
m1 = 0.1995	1015.69 ± 0.096	1014.61 ± 0.095	1013.26 ± 0.094	1011.7 ± 0.093	1009.95 ± 0.092	1483.3 ± 0.78	1496.4 ± 0.79	1508.5 ± 0.79	1519.1 ± 0.79	1528.1 ± 0.8
m1 = 0.2522	1019.87 ± 0.096	1018.75 ± 0.095	1017.37 ± 0.095	1015.77 ± 0.094	1013.98 ± 0.093	1487.2 ± 0.79	1499.6 ± 0.79	1511.4 ± 0.8	1521.6 ± 0.8	1530.1 ± 0.8
m1 = 0.3025	1023.82 ± 0.098	1022.63 ± 0.097	1021.27 ± 0.097	1019.6 ± 0.095	1017.78 ± 0.095	1491 ± 0.8	1502.7 ± 0.8	1514 ± 0.8	1523.7 ± 0.81	1531.9 ± 0.81
m1 = 0.3477	1027.3 ± 0.099	1026.08 ± 0.097	1024.71 ± 0.097	1023 ± 0.097	1021.14 ± 0.095	1494.2 ± 0.8	1505.2 ± 0.81	1516.1 ± 0.81	1525.5 ± 0.81	1533 ± 0.81
m1 = 0.4036	1031.57 ± 0.1	1030.23 ± 0.099	1028.85 ± 0.099	1027.14 ± 0.098	1025.23 ± 0.097	1498 ± 0.81	1508.5 ± 0.81	1519 ± 0.82	1527.7 ± 0.82	1534.9 ± 0.82
m1 = 0.4508	1035.08 ± 0.1	1033.71 ± 0.1	1032.38 ± 0.1	1030.58 ± 0.1	1028.63 ± 0.099	1501.1 ± 0.82	1511.1 ± 0.82	1521.1 ± 0.82	1529.7 ± 0.82	1536.2 ± 0.82
m1 = 0.5032	1038.95 ± 0.1	1037.5 ± 0.1	1036.15 ± 0.1	1034.41 ± 0.1	1032.4 ± 0.1	1504.9 ± 0.82	1514.1 ± 0.83	1523.7 ± 0.83	1531.8 ± 0.83	1537.6 ± 0.83
